Consider 40 molecules from PubChem BioAssay (NCI).

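Exposure lasted 48 hours, with cells grown in 96-well plates and compounds tested at five concentrations. Abbreviation: GI50, concentration required for 50% inhibition of growth. The concentration for full growth arrest is given as TGI.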 *1 amine or outer side, *2 acyl side, *3 side chain or, on linkers, in order; H or OH if unused. Where a SMILES comes first, the peptide text is derived from it. [ ]: non-standard residue; d: D form. The star is where a group is joined. ξ: configuration not given here. X15 = CCN(CC)c1ccc2cc(N*)c(=O)oc2c1; dIva = CC[C@@](C)(N)C(=O)O; X14 = O=C(OCCN[*:1])[*:2]; Aib = CC(C)(N)C(=O)O; ξP = O=C(O)C1CCCN1; βAla = NCCC(=O)O A value given as a limit tells only on which side of the number the result lay.

The test system of the assay is MDA-MB-468 breast. Kind of assay: NCI tumour cell line growth inhibition, 48 h.
Regarding `CCNCCNc1cc(C2CCCCC2)c(C#N)c2nc3ccccc3n12`, the GI50 was 0.751 µM and the TGI was determined as 2.1 µM.

Regarding `O=C(c1cccnc1)c1cc(-c2ccccn2)c(=O)n2ccccc12`, the GI50 is over 100 µM and the TGI is over 100 µM.

With `Nc1c(C(=O)Nc2ccccc2)sc2nc3c(cc12)CN(Cc1ccccc1)CC3`, the GI50 was 17 µM and the TGI was over 100 µM.

As for `Cc1[nH]c2ccccc2c1CCNCc1ccc(/C=C/C(=O)NO)cc1`, the GI50 is under 0.01 µM and the TGI is 0.14 µM.

With `CC1(C)CC[C@]2(C(=O)N3CCOCC3)CC[C@]3(C)C(=CC[C@@H]4[C@@]5(C)C/C(=C/c6ccncc6)C(=O)C(C)(C)[C@@H]5CC[C@]43C)[C@@H]2C1`, the GI50 is 0.712 µM and the TGI was over 100 µM.

Take `O=C(CCCSc1nc(-c2ccccc2)cc(-c2ccc(Cl)cc2)n1)NO`: the GI50 was 1.58 µM and the TGI was 3.89 µM.

Take `C=C1CCC2C3(C)COC(c4ccccc4Br)OC3CCC2(C)C1C/C=C1/C(=O)OCC1OC(C)=O` (centres undefined): the GI50 was 1.2 µM and the TGI amounted to 2.82 µM.

Take `COc1cc(C2CC(c3ccc(N(C)C)cc3)=NN2C(C)=O)cc(OC)c1OC` (centres undefined): the GI50 was 1.72 µM and the TGI was over 100 µM.

As for `CCN1C(=O)N(CC)C2C1NN=c1s/c(=C\c3cc4ccccc4[nH]3)c(=O)n12` (centres undefined), the GI50 is under 0.01 µM and the TGI is 8.52 µM.

For the molecule `CCN(CC)c1ccc2cc(NC(=O)OCCNC(=O)CCNC(=O)[C@H](CC(C)C)NC(=O)C(C)(C)NC(=O)C(C)(C)NC(=O)[C@H](CC(C)C)NC(=O)CCNC(=O)C(C)(C)NC(=O)[C@H](CC(C)C)NC(=O)CCNC(=O)[C@@](C)(CC)NC(=O)[C@H](C)NC(=O)CCNC(=O)C(C)(C)NC(=O)[C@H](C)NC(=O)[C@@H]3CCCN3C(=O)[C@@](C)(CC)NC(=O)[C@H](Cc3ccccc3)NC(=O)C3CCCN3C(=O)C(C)(C)NC(=O)C3CCCN3C(=O)C(C)(C)NC(C)=O)c(=O)oc2c1` (some centres undefined) (Ac-[Aib][ξP][Aib][ξP]F[dIva]PA[Aib][βAla]A[dIva][βAla]L[Aib][βAla]L[Aib][Aib]L[βAla][X14]-X15), the GI50 is 0.00277 µM and the TGI was found to be 0.00774 µM.

For `CC(=O)O[C@H]1CC[C@@]2(C)[C@@H](CC[C@@H]3[C@@H]2CC[C@]2(C)C=C(C=O)C[C@@H]32)C1`, the GI50 was 15.5 µM and the TGI came out at 38.2 µM.

Take `COc1cc(C(=O)/C=C/c2cccnc2Nc2ccccc2)cc(OC)c1OC`: the GI50 is 0.665 µM and the TGI was found to be 2.1 µM.

For `O=C(N/N=C/c1cc([N+](=O)[O-])ccc1O)c1cccc2ccccc12`, the GI50 was 1.52 µM and the TGI was found to be 4.74 µM.

For `Cn1ccnc1C(=O)/C=C/c1ccc(CC(=O)Nc2ccc(C(F)(F)F)cc2)cc1`, the GI50 was 2.09 µM and the TGI was 4.66 µM.

Regarding `Nc1nc(N)c(N=O)c(OCC2CCCCC2)n1`, the GI50 is 15.2 µM and the TGI came out at 52.9 µM.

Take `Nc1ccc(-c2ccc(N)cc2I)c(I)c1`: the GI50 was 5.93 µM and the TGI amounted to 44.9 µM.

Regarding `COc1cc(C2C3=C(COC3=O)Nc3cc4c(cc32)CCC4)cc2c1OCO2` (centres undefined), the GI50 is 0.0281 µM and the TGI was 0.147 µM.

Consider `CCN(CC)c1ccc(C(=N)c2ccc(N(C)C)cc2)cc1`, for which the GI50 was 0.113 µM and the TGI came out at 2.25 µM.

For the molecule `COCCNc1cc(NC(=O)N2CCCc3cc(CN4CCN(C)CC4=O)c(C=O)nc32)ncc1C#N`, the GI50 is 26.5 µM and the TGI is over 50 µM.

With `CN(C)CC1CCCCCC(CN(C)C)C1=O` (centres undefined), the GI50 was 0.502 µM and the TGI was 2.54 µM.

In the case of `CS(=O)(=O)Nc1ccc(N=Cc2c(O)[nH]c3ccccc23)cc1`, the GI50 is over 25 µM and the TGI is over 25 µM.

For the molecule `CC1(C)CC[C@]23CC[C@]4(C)[C@H](CC[C@@H]5[C@@]6(C)CC[C@H](NCO)C(C)(C)[C@@H]6CC[C@]54C)[C@H]2[C@H]1OC3`, the GI50 is 1.85 µM and the TGI came out at 3.71 µM.

For `Nc1n[nH]c2cccc(C#Cc3cccc(C(=O)Nc4cc(CN5CCOCC5)cc(C(F)(F)F)c4)c3)c12`, the GI50 is 3.47 µM and the TGI came to 12.9 µM.

Consider `CCCCNC(=O)NS(=O)(=O)c1ccc(N2N=C(c3cc(C)ccc3C)CC2c2cc(OC)c(OC)c(OC)c2)cc1` (centres undefined), for which the GI50 was 2.17 µM and the TGI is 5.35 µM.

As for `CN(C)c1ccc(C(=C2C=CC(=[N+](C)C)C=C2)c2ccc(N(C)C)cc2)cc1`, the GI50 was 0.12 µM and the TGI was 0.43 µM.

On to `O=C(CN1CCN(c2ccccc2)CC1)N1CCN(c2nnc(-c3ccc(Cl)cc3)c(-c3ccc(Cl)cc3)n2)CC1`, for which the GI50 was 18.9 µM and the TGI is 95.3 µM.

In the case of `CC(C)c1ccc(Nc2nccc(-c3cnn4ncccc34)n2)cc1`, the GI50 is 0.271 µM and the TGI was 0.833 µM.

Take `FC(F)(F)c1ccc(-c2cnc(Cl)nc2NCc2cc(C(F)(F)F)cc(C(F)(F)F)c2)cc1`: the GI50 was 2.06 µM and the TGI came out at 9.15 µM.

As for `O=C(OCCBr)c1ccc(Cl)c([N+](=O)[O-])c1`, the GI50 is 1.9 µM and the TGI was determined as 4.09 µM.

In the case of `CCCCCCCOc1c(OC)cc(C2CC(=O)Nc3c2c(C)nn3-c2nc3ccccc3[nH]2)cc1OC` (centres undefined), the GI50 is 2.45 µM and the TGI stood at 7.12 µM.

Turning to `COc1ccc(-c2nn(-c3cccc(Cl)c3)cc2-c2cc(-c3ccccc3)nc(N)n2)cc1`, the GI50 was 1.72 µM and the TGI came to 3.59 µM.

Consider `CN1CCN(Cc2ccc(NC(=O)c3cncc(C#Cc4cnc5ccc(OCC(F)F)nn45)c3)cc2C(F)(F)F)CC1`, for which the GI50 is 0.428 µM and the TGI stood at 1.33 µM.

As to `O=C(COc1cccc(/C=C2\COc3ccc(Cl)cc3C2=O)c1)c1ccc(Cl)cc1`, the GI50 was 2.82 µM and the TGI stood at 9.26 µM.

On to `CCOc1ccccc1/C=N\N=C(\N)N/N=C/c1ccccc1OCC`, for which the GI50 was 1.72 µM and the TGI stood at 8.48 µM.

Turning to `CCCCN(CCCC)c1ccc(C(=NC(C)CCCN(CC)CC)c2ccc(N(C)C)cc2)cc1` (centres undefined), the GI50 is 0.795 µM and the TGI was 1.67 µM.

Take `C[C@]12CCc3sc(Nc4ccc(O)cc4)nc3C1=CC[C@@H]1[C@@H]2CC[C@]2(C)C(=O)CC[C@@H]12`: the GI50 is 2.17 µM and the TGI is 5.8 µM.

For `OCC1OC(n2cnc3c(=S)nc[nH]c32)C(O)C1O` (centres undefined), the GI50 is 0.631 µM and the TGI is over 100 µM.

`CC(C)(C#N)c1cc(C(=O)Nc2cc(Nc3ncccc3-c3ncnc4nc[nH]c34)ccc2F)cc(C(F)(F)F)c1` came in with a TGI of over 4.09 µM.

As to `Nc1n[nH]c2ccc([C@@H]3Nc4ccc5[nH]ncc5c4[C@H]4C5C=CC(C5)[C@@H]34)cc12` (some centres undefined), the GI50 was 0.329 µM and the TGI turned out to be 16 µM.

For the molecule `CCCOc1nc(SCCC)nc2c1cnn2-c1ccccc1`, the GI50 was over 100 µM and the TGI was over 100 µM.
